Test results from patent publication US6353015B1, “Method of treating neurodegenerative disorders” (St. Elizabeth's Medical Center, priority 1998, dated 2002).
Entries after “also recorded” stand apart in the source; their conditions may differ. Where two headings read alike, the source gives them in different places. No end group written: not given here.

Legend:
AF64A-treated rats [1] = conditions: rat, in vivo; for Correct responses, % Learning test / Correct responses, % Retention test: po
cerebellar granule cells = test: βAP 25-35 toxicity assay in mature cerebellar granule cell cultures (Example 5); format: cell-based, rat; conditions: for increase of the amount of living CGC, compound alone: concentration range 25-200 μM; for protective effect against the toxicity of βAP 25-35 (in words): mature cultures, 8 DIV; for protection of neurons against βAP: compound at 25 μM
Protocol: FIG. 8. […] The difference in numbers of living neurons before and after 4 days of treatment were determined. The amount of viable neurons is expressed as mean (%) above viable in preliminary photography of the same place. Experiments were repeated 2-3 times (n=12-18). For graphical presentation, average data from representative experiments were converted to percentages of control groups viability. Results were expressed as a percentage of survival cells to compare with control ±SEM and were analyzed by a statistical test (ANOVA).
Cerebellar granule cells (CGC) were prepared from the postnatal rats (7-8 days old) by the following procedure based on the generally accepted methods (V. Gallo et al., J. Neurosci. 7:2203-2213, 1987). The pieces of cerebellum were digested with 0,25 mg/ml trypsin for 25 min. at 37° C. and incubated for 5 min. in 0.1% soybean trypsin inhibitor. After washing, cells were dissociated by triturating. Following two centrifugation-resuspension steps, the cells were plated at a density of 2.5-[…] cells per ml on polylysine-coated 24-well plates (Corning) and maintained at 37° C. in a humidified incubator with 5% CO2/95% room air. The medium was composed of Eagle's minimal essential medium and fetal calf serum (10%) supplemented with 20 mM potassium chloride, 10 mM glucose, 2 mM glutainine, 50 μg/ml gentamycin sulfate. Cytosine arabinoside (10 μM) was added 24-48 h later to prevent the replication of non-neuronal cells.
The βAP 25-35 (Bachem) was dissolved by sonication in sterilized distilled water at a concentration of 1 mM. […]
Neuronal viability was evaluated by morphometric cell counting using the presence of neurites and smooth, round cell bodies as criteria of survival. The cells were examined under the phase-contrast microscope Axiovert 25C with videocamera and Software miroMedia PCTV VideoCap program for image scanning and photography. Cell survival was quantified by counting the number of viable neurons in premarked microscope fields prior to, and 4 days after the exposure. The difference in numbers of living neurons before and after 4 days of treatment was determined.
For each experiment, we used 4-6 separate wells of a 24-well multiwell plate for control (with 0.05% DMSO)and for each concentration of compound or composition of compound with βAP. Each well equals one observation, (average of 25 cells per microscope field). Experiments are repeated 2-3 times (n=12-18). For graphical presentation, average data from representative experiments were expressed as a percentage of survival cells in comparison with control ±SEM and analyzed by ANOVA and Student t-test.

[2] = in rats; Oxenkrug et al. 1994; cited from earlier work
AF64A-treated rats [3] = test: Morris water maze test; format: in vivo, rat; conditions: 0.3 mg/kg daily orally; day 1 and day 5
Protocol: FIGS. 7A and 7B Average swim latency made by rats, when trained 1 (A) and […] to find a platform in Morris water maze test. […] Results were estimated as time required for rat felt into a water pool to reach a platform;**−[…], ***−p<0.001 vs. AF64A-treated group, where p is the significance level (post hoc ANOVA).
The test was started 2 days after the last injection of tested compounds and was performed daily for the period from 3 to 9 day. Round swimming pool (1,8 m diameter and 0,45 m high) with 22° C. water was placed in the center of the room. The platform was located 1 cm below the surface of the water. Starting points for the swims were at the cardinal compass points (N, S, E, W), which were selected in a semi-random fashion for each rat on each trial.
Each experimental group, i.e., control, AF64A-treated groups and groups for each concentration of the tested compounds, contained 9-11 rats. Results were estimated as time required for rat felt into a water pool to reach a platform (a sum of two trials from different position every day). Data were analyzed as the mean±SEM. (ANOVA followed by post hoc comparisons).

rats = test: Observation of sedative effect during oral treatment
[4] = test system: Cerebellar granule cells (CGC); test: Survival of cerebellar granule cells with amyloid beta-protein (Example 4); format: cell-based, rat; set-up: dose or concentration left out as unconfirmed; conditions: 72 hr
Protocol: Cerebellar granule cells (CGC) obtained from brains of 8-day rat pups were maintained in culture. The amyloid beta-protein (βAP) and/or NAS derivative (DNAS-18) were added to CGC for a period of 72 hr. Vehicle solution was added to CGC in the control experiments. Survival of CGS was assessed by lactate dehydrogenase method and by visual counting of living neurons.

AF64A-treated rats [5] = test: Two-way shuttle box avoidance, learning and retention tests (Example 3); format: in vivo, rat
mouse = test: Mouse tail suspension test; conditions: in vivo
From the text: The combination of cognition-enhancing and antidepressant effect in the one and the same compound might be of additional therapeutic advantage.

Antihypertensive effect = conditions: in vivo
[6] = 3 mg/kg p.o. for 12 days after AF64A i.c.v. 3 nmol/ventricle

CC(=O)NCCc1c[nH]c2ccc(O)cc12 [NAS, N-acetylserotonin]
cognitive performance of AF64A-treated rats in active avoidance and in water-maze tests (summary) (AF64A-treated rats [1]): improve cognitive performance | performance in learning paradigm of the active avoidance test (in words) (AF64A-treated rats [1]): improved the performance | performance in retention paradigm of the active avoidance test (in words) (AF64A-treated rats [1]): not in retention | Correct responses, % Learning test (AF64A-treated rats [1]; 1 mg/kg): 65.4 ± 8.8 % | Correct responses, % Retention test (AF64A-treated rats [1]; 1 mg/kg): 56.0 ± 9.2 % | comparative efficacy in preventing βAP toxicity (cerebellar granule cells): strongest | viable neurons, co-incubation with βAP (cerebellar granule cells; 25 μM compound): 101±5 % of control | increase of the amount of living CGC, compound alone (cerebellar granule cells): 16-28 % of control | protective effect against the toxicity of βAP 25-35 (in words) (cerebellar granule cells; 4 days): exerted a neuroprotective effect; also recorded: Protective effect | conversion of NAS into melatonin [2]: rapidly converted into melatonin

COc1ccc2[nH]cc(CCNC(C)=O)c2c1 [Melatonin, reference compound]
cognitive performance of AF64A-treated rats in active avoidance and in water-maze tests (summary) (AF64A-treated rats [1]): improve cognitive performance | performance in learning paradigm of the active avoidance test (in words) (AF64A-treated rats [1]): completely restored; also recorded: significant but somewhat less pronounced | performance in retention paradigm of the active avoidance test (in words) (AF64A-treated rats [1]): completely restored; also recorded: significant but somewhat less pronounced | Correct responses, % Learning test (AF64A-treated rats [1]; 0.3 mg/kg): 79.0 ± 6.0 % | Correct responses, % Retention test (AF64A-treated rats [1]; 0.3 mg/kg): 83.2 ± 3.2 % | Correct responses, % Learning test (AF64A-treated rats [1]; 3 mg/kg): 75.4 ± 7.0 % | Correct responses, % Retention test (AF64A-treated rats [1]; 3 mg/kg): 72.2 ± 5.8 % | response time (swim latency to platform) (AF64A-treated rats [3]): decreased the response time | comparative efficacy in preventing βAP toxicity (cerebellar granule cells): less effective | protection of neurons against βAP (cerebellar granule cells; 25 μM βAP): 90% | increase of the amount of living CGC, compound alone (cerebellar granule cells): 3-10 % of control | protective effect against the toxicity of βAP 25-35 (in words) (cerebellar granule cells; 4 days): Protective effect | protective effect against the toxicity of βAP 25-35 (in words) (cerebellar granule cells; 4 days, listed as melatonin): exerted a neuroprotective effect | sedative effect (rats; 0.3 mg/kg orally daily): did not induced sedation | onset of sedative effect (rats; 3 mg/kg orally daily): 3-4 days of treatment | sedative effect (rats; 3 mg/kg orally daily): unspecified sedative effect

GSNKGAIIGLM [βAP, reference compound]
viability of CGC neurons with βAP alone ([4]; βAP, mean±S.E.): 56±8 % of control | viability of neurons exposed to βAP alone (cerebellar granule cells; 25 μM βAP, 4 days, mean ±SEM): 58±7 % of control

CCC(=O)NCCc1c[nH]c2ccc(OCc3ccccc3)cc12 [CA-15, N-[2-(5-Benzyloxyindol-3-yl)ethyl]propanamide]
duration of cognition-enhancing effect in retention test after the learning trials (AF64A-treated rats [5]; 3 mg/kg p.o. for 12 days after AF64A): ≥ 10 days | number of correct responses, learning test (in words) (AF64A-treated rats [5]; [6]): almost completely restored | number of correct responses, retention test (in words) (AF64A-treated rats [5]; [6]): almost completely restored | cognitive performance of AF64A-treated rats in active avoidance and in water-maze tests (summary) (AF64A-treated rats [1]): improve cognitive performance | performance in learning paradigm of the active avoidance test (in words) (AF64A-treated rats [1]): strong tendency (although not reaching the level of statistical significance) towards the improvement | performance in retention paradigm of the active avoidance test (in words) (AF64A-treated rats [1]): improved the performance | Correct responses, % Learning test (AF64A-treated rats [1]; 3 mg/kg): 61.4 ± 7.4% | Correct responses, % Retention test (AF64A-treated rats [1]; 3 mg/kg): 68.0 ± 8.4 % | protective effect against the toxicity of βAP 25-35 (in words) (cerebellar granule cells; 4 days): exerted a neuroprotective effect; also recorded: Protective effect | antidepressant-like activity (decreasing the duration of immobility) (mouse): antidepressant-like effects | antihypertensive effect (Antihypertensive effect): antihypertensive | melting point: 110 to 112 °C

CCCC(=O)NCCc1c[nH]c2ccc(OCc3ccccc3)cc12 [CA-18, N-[2-(5-Benzyloxyindol-3-yl)ethyl] butanamide]
cognitive performance of AF64A-treated rats in active avoidance and in water-maze tests (summary) (AF64A-treated rats [1]): improve cognitive performance | performance in learning paradigm of the active avoidance test (in words) (AF64A-treated rats [1]): completely restored; also recorded: strong tendency (although not reaching the level of statistical significance) towards the improvement | Correct responses, % Learning test (AF64A-treated rats [1]; 0.3 mg/kg): 84.0 ± 5.4 % | Correct responses, % Retention test (AF64A-treated rats [1]; 0.3 mg/kg): 82.7 ± 5.0 % | Correct responses, % Learning test (AF64A-treated rats [1]; 1 mg/kg): 50.0 ± 8.8% | Correct responses, % Retention test (AF64A-treated rats [1]; 1 mg/kg): 48.1 ± 9.8% | response time (swim latency to platform) (AF64A-treated rats [3]): decreased the response time | viability of neurons, compound added to βAP [4]: 98±4 % of control | increase of viability of CGC neurons, compound alone ([4]; mean±S.E.): 18±3 % of control | protection of neurons against βAP (cerebellar granule cells; 25 μM βAP): 93% | protective effect against the toxicity of βAP 25-35 (in words) (cerebellar granule cells; 4 days): exerted a neuroprotective effect | antidepressant-like activity (decreasing the duration of immobility) (mouse): antidepressant-like effects | antidepressant-like activity, comparison CA-18 with CA-15 (mouse): more pronounced | antihypertensive effect (Antihypertensive effect): antihypertensive | melting point: 112 to 114 °C | sedative effect (rats; 0.3 mg/kg orally daily): did not induced sedation | sedative effect (rats; 1 mg/kg orally daily): did not induced sedation
